Measurements as given in PubChem BioAssay AID2060504 (Molecular Pharmacology Branch, DTP, NCI, 2025).

System: 636577-100-R-J1-PDC complex spheroid viability
Test: Anticancer human tumor 636577-100-R-J1-PDC patient-derived endometrial adenocarcinoma cell line growth inhibition [GQUAD]
Settings: for IC50: curve of first compound; for viability, T/C: stronger effect = lower value
In short: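 Viability of tumor cells grown as complex spheroids with endothelial and stromal cells, exposed to drug combinations. Top concentration at or near clinical Cmax (else 10 microM), diluted in half-log increments.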

[1] = second compound 0.0316 µM, first compound 0.0316 µM
[2] = second compound 0.0316 µM, first compound 0.1 µM
[3] = second compound 0.0316 µM, first compound 0.316 µM
[4] = second compound 0.0316 µM, first compound 1 µM
[5] = second compound 0.0316 µM, first compound 3.16 µM
[6] = second compound 0.0316 µM, first compound 10 µM
[7] = second compound 0.1 µM, first compound 0.0316 µM
[8] = second compound 0.1 µM, first compound 0.1 µM
[9] = second compound 0.1 µM, first compound 0.316 µM
[10] = second compound 0.1 µM, first compound 1 µM
[11] = second compound 0.1 µM, first compound 3.16 µM
[12] = second compound 0.1 µM, first compound 10 µM
[13] = second compound 0.316 µM, first compound 0.0316 µM
[14] = second compound 0.316 µM, first compound 0.1 µM
[15] = second compound 0.316 µM, first compound 0.316 µM
[16] = second compound 0.316 µM, first compound 1 µM
[17] = second compound 0.316 µM, first compound 3.16 µM
[18] = second compound 0.316 µM, first compound 10 µM
[19] = second compound 1 µM, first compound 0.0316 µM
[20] = second compound 1 µM, first compound 0.1 µM
[21] = second compound 1 µM, first compound 0.316 µM
[22] = second compound 1 µM, first compound 1 µM
[23] = second compound 1 µM, first compound 3.16 µM
[24] = second compound 1 µM, first compound 10 µM
[25] = second compound 3.16 µM, first compound 0.0316 µM
[26] = second compound 3.16 µM, first compound 0.1 µM
[27] = second compound 3.16 µM, first compound 0.316 µM
[28] = second compound 3.16 µM, first compound 1 µM
[29] = second compound 3.16 µM, first compound 3.16 µM
[30] = second compound 3.16 µM, first compound 10 µM
[31] = second compound 10 µM, first compound 0.0316 µM
[32] = second compound 10 µM, first compound 0.1 µM
[33] = second compound 10 µM, first compound 0.316 µM
[34] = second compound 10 µM, first compound 1 µM
[35] = second compound 10 µM, first compound 3.16 µM
[36] = second compound 10 µM, first compound 10 µM
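Also: viability read after seven days of drug exposure.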
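For viability, T/C in this document: luminescence signal used as a proxy for viable cells; 100% = DMSO vehicle control wells.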

C=CCn1c(=O)c2cnc(Nc3ccc(N4CCN(C)CC4)cc3)nc2n1-c1cccc(C(C)(C)O)n1 + Cc1[nH]c2ccc(F)cc2c1-c1nc2c3cccnc3c3ncccc3c2[nH]1
IC50 (second compound 0.0316 µM): 825 nM | IC50 (second compound 0.1 µM): 746 nM | IC50 (second compound 0.316 µM): 580 nM | IC50 (second compound 1 µM): 202 nM | IC50 (second compound 3.16 µM): < 31.6 nM | IC50 (second compound 10 µM): < 31.6 nM | viability, T/C [1]: 113% | viability, T/C [2]: 83.9% | viability, T/C [3]: 94% | viability, T/C [4]: 41% | viability, T/C [5]: 16.9% | viability, T/C [6]: 12.4% | viability, T/C [7]: 103% | viability, T/C [8]: 78% | viability, T/C [9]: 78.4% | viability, T/C [10]: 40.6% | viability, T/C [11]: 19.6% | viability, T/C [12]: 12.5% | viability, T/C [13]: 83% | viability, T/C [14]: 78.5% | viability, T/C [15]: 65% | viability, T/C [16]: 36.9% | viability, T/C [17]: 17.4% | viability, T/C [18]: 14% | viability, T/C [19]: 83.9% | viability, T/C [20]: 45.3% | viability, T/C [21]: 58.1% | viability, T/C [22]: 29.8% | viability, T/C [23]: 16.1% | viability, T/C [24]: 13.6% | viability, T/C [25]: 25.6% | viability, T/C [26]: 21.4% | viability, T/C [27]: 23.6% | viability, T/C [28]: 19.1% | viability, T/C [29]: 17.5% | viability, T/C [30]: 16.6% | viability, T/C [31]: 35% | viability, T/C [32]: 28.6% | viability, T/C [33]: 29.3% | viability, T/C [34]: 20.1% | viability, T/C [35]: 20.9% | viability, T/C [36]: 14.5%

CC1COCCN1c1cc(-c2ccnn2C)c2ccnc(-c3ccn[nH]3)c2n1 (stereo not given) + Cc1cnc(CNC(=O)c2c(=O)c3ccc(N4CCCN(C)CC4)nc3n3c2sc2ccccc23)cn1
IC50 (second compound 0.0316 µM): < 31.6 nM | IC50 (second compound 0.1 µM): < 31.6 nM | IC50 (second compound 0.316 µM): < 31.6 nM | IC50 (second compound 1 µM): < 31.6 nM | IC50 (second compound 3.16 µM): < 31.6 nM | IC50 (second compound 10 µM): < 31.6 nM | viability, T/C [1]: 31.9% | viability, T/C [2]: 20.2% | viability, T/C [3]: 18.4% | viability, T/C [4]: 9.61% | viability, T/C [5]: 5.71% | viability, T/C [6]: 3.77% | viability, T/C [7]: 22.7% | viability, T/C [8]: 19.2% | viability, T/C [9]: 17.2% | viability, T/C [10]: 11.2% | viability, T/C [11]: 6.18% | viability, T/C [12]: 3.47% | viability, T/C [13]: 15.1% | viability, T/C [14]: 19.7% | viability, T/C [15]: 17.7% | viability, T/C [16]: 12.5% | viability, T/C [17]: 6.51% | viability, T/C [18]: 2.82% | viability, T/C [19]: 17.9% | viability, T/C [20]: 18.9% | viability, T/C [21]: 15.6% | viability, T/C [22]: 14.7% | viability, T/C [23]: 7.08% | viability, T/C [24]: 3.42% | viability, T/C [25]: 18.9% | viability, T/C [26]: 17.4% | viability, T/C [27]: 16.8% | viability, T/C [28]: 14% | viability, T/C [29]: 7.38% | viability, T/C [30]: 3.36% | viability, T/C [31]: 16.8% | viability, T/C [32]: 16.6% | viability, T/C [33]: 17.2% | viability, T/C [34]: 10.1% | viability, T/C [35]: 6.54% | viability, T/C [36]: 3.1%

CC1COCCN1c1cc(C2(O)CC3CCC(C2)O3)c2cnn(-c3ccn[nH]3)c2n1 (stereo not given) + Cc1cnc(CNC(=O)c2c(=O)c3ccc(N4CCCN(C)CC4)nc3n3c2sc2ccccc23)cn1
IC50 (second compound 0.0316 µM): < 31.6 nM | IC50 (second compound 0.1 µM): < 31.6 nM | IC50 (second compound 0.316 µM): < 31.6 nM | IC50 (second compound 1 µM): < 31.6 nM | IC50 (second compound 3.16 µM): < 31.6 nM | IC50 (second compound 10 µM): < 31.6 nM | viability, T/C [1]: 28.1% | viability, T/C [2]: 18.8% | viability, T/C [3]: 14.3% | viability, T/C [4]: 6.98% | viability, T/C [5]: 2.58% | viability, T/C [6]: 1.35% | viability, T/C [7]: 21% | viability, T/C [8]: 17.8% | viability, T/C [9]: 15.2% | viability, T/C [10]: 6.8% | viability, T/C [11]: 3.54% | viability, T/C [12]: 1.24% | viability, T/C [13]: 17.7% | viability, T/C [14]: 16.3% | viability, T/C [15]: 13.8% | viability, T/C [16]: 7.53% | viability, T/C [17]: 3.12% | viability, T/C [18]: 1.5% | viability, T/C [19]: 15% | viability, T/C [20]: 14.2% | viability, T/C [21]: 11.4% | viability, T/C [22]: 6.81% | viability, T/C [23]: 3.62% | viability, T/C [24]: 1.25% | viability, T/C [25]: 16.1% | viability, T/C [26]: 16.7% | viability, T/C [27]: 13.5% | viability, T/C [28]: 8.88% | viability, T/C [29]: 3.75% | viability, T/C [30]: 1.52% | viability, T/C [31]: 15.6% | viability, T/C [32]: 15.8% | viability, T/C [33]: 14% | viability, T/C [34]: 6.65% | viability, T/C [35]: 2.67% | viability, T/C [36]: 0.14%

CC1COCCN1c1cc(C2(S(C)(=N)=O)CC2)nc(-c2ccnc3[nH]ccc23)n1 (stereo not given) + Cc1cnc(CNC(=O)c2c(=O)c3ccc(N4CCCN(C)CC4)nc3n3c2sc2ccccc23)cn1
IC50 (second compound 0.0316 µM): 239 nM | IC50 (second compound 0.1 µM): < 31.6 nM | IC50 (second compound 0.316 µM): < 31.6 nM | IC50 (second compound 1 µM): < 31.6 nM | IC50 (second compound 3.16 µM): < 31.6 nM | IC50 (second compound 10 µM): < 31.6 nM | viability, T/C [1]: 56.2% | viability, T/C [2]: 50% | viability, T/C [3]: 54.1% | viability, T/C [4]: 30.5% | viability, T/C [5]: 45.3% | viability, T/C [6]: 12.3% | viability, T/C [7]: 30.8% | viability, T/C [8]: 29.6% | viability, T/C [9]: 33.5% | viability, T/C [10]: 21.7% | viability, T/C [11]: 27.5% | viability, T/C [12]: 12.2% | viability, T/C [13]: 23.4% | viability, T/C [14]: 24.4% | viability, T/C [15]: 25.2% | viability, T/C [16]: 22% | viability, T/C [17]: 24.2% | viability, T/C [18]: 14.5% | viability, T/C [19]: 21.1% | viability, T/C [20]: 22.7% | viability, T/C [21]: 21.8% | viability, T/C [22]: 18.3% | viability, T/C [23]: 24.8% | viability, T/C [24]: 9.7% | viability, T/C [25]: 18.5% | viability, T/C [26]: 18.5% | viability, T/C [27]: 21.2% | viability, T/C [28]: 19.4% | viability, T/C [29]: 21.5% | viability, T/C [30]: 14.3% | viability, T/C [31]: 16.9% | viability, T/C [32]: 22.2% | viability, T/C [33]: 23.4% | viability, T/C [34]: 22.7% | viability, T/C [35]: 23% | viability, T/C [36]: 13.2%

COc1ccc([C@@H](O)c2cc(-c3ncnc4cc(N5CCOCC5)ccc34)c(F)cc2Cl)nn1 + Cc1cnc(CNC(=O)c2c(=O)c3ccc(N4CCCN(C)CC4)nc3n3c2sc2ccccc23)cn1
IC50 (second compound 0.0316 µM): < 31.6 nM | IC50 (second compound 0.1 µM): < 31.6 nM | IC50 (second compound 0.316 µM): < 31.6 nM | IC50 (second compound 1 µM): < 31.6 nM | IC50 (second compound 3.16 µM): < 31.6 nM | IC50 (second compound 10 µM): < 31.6 nM | viability, T/C [1]: 47.1% | viability, T/C [2]: 42.8% | viability, T/C [3]: 20% | viability, T/C [4]: 10.8% | viability, T/C [5]: 9.47% | viability, T/C [6]: 9.92% | viability, T/C [7]: 30.6% | viability, T/C [8]: 22% | viability, T/C [9]: 15.2% | viability, T/C [10]: 12.2% | viability, T/C [11]: 13.5% | viability, T/C [12]: 11.6% | viability, T/C [13]: 22.8% | viability, T/C [14]: 21.2% | viability, T/C [15]: 13% | viability, T/C [16]: 13.2% | viability, T/C [17]: 13.6% | viability, T/C [18]: 12.8% | viability, T/C [19]: 18.2% | viability, T/C [20]: 18.3% | viability, T/C [21]: 13.8% | viability, T/C [22]: 15.4% | viability, T/C [23]: 14.1% | viability, T/C [24]: 10.8% | viability, T/C [25]: 20.3% | viability, T/C [26]: 17.9% | viability, T/C [27]: 18% | viability, T/C [28]: 16.1% | viability, T/C [29]: 16.6% | viability, T/C [30]: 13.6% | viability, T/C [31]: 19.5% | viability, T/C [32]: 21.2% | viability, T/C [33]: 19.6% | viability, T/C [34]: 18.5% | viability, T/C [35]: 16.5% | viability, T/C [36]: 14.5%
